This passage reports inhibition results from patent publication US4489094A, “Arylalkylaminobenzoic acids” (American Cyanamid Company, priority 1983, dated 1984).

For this assay, the target named is T1, fatty acyl CoA: cholesterol acyl transferase (ACAT) (Rattus norvegicus, UniProt O70536).
T1 construct: Rat adrenals were homogenized; from tissue; host or cells: rat adrenals, 1,000 x g supernatant containing the microsomal fraction
T1 sequence (O70536 1-545): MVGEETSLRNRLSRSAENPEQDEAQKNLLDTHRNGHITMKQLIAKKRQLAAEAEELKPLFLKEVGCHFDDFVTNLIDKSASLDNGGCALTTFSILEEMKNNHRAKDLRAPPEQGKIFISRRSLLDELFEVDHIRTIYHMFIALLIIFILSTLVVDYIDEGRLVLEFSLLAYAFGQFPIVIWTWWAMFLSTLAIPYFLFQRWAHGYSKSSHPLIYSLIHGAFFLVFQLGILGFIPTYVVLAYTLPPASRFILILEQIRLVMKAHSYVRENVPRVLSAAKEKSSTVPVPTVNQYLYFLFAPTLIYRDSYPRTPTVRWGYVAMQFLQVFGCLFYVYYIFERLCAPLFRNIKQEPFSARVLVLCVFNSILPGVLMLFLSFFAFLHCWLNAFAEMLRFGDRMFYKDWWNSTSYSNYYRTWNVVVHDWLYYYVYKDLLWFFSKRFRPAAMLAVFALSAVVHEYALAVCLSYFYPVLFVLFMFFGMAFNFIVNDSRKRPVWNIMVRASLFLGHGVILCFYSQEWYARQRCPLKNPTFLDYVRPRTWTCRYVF
Kind of assay: Inhibition of enzymatic esterification of cholesterol (ACAT), rat adrenal microsomal supernatant. The format is biochemical. The settings on record: final concentration of test compound 5.2 μg./ml.; percent inhibition of the ACAT enzyme compared to control values. How it is done: The compounds of the present invention were tested for their ability to inhibit the enzymatic esterification of cholesterol according to the following procedure:
Rat adrenals were homogenized in 0.2M monobasic potassium phosphate buffer, pH 7.4, and centrifuged at 1,000 times gravity for 15 minutes at 5° C. The supernatant, containing the microsomal fraction, served as the source of the cholesterol-esterifying enzyme, fatty acyl CoA: cholesterol acyl transferase (ACAT). A mixture comprising 50 parts of adrenal supernatant, 10 parts of albumin (BSA) (50 mg./m.), […], 3 parts of test compound, and 500 parts of buffer was pre-incubated at 37° C. for 10 minutes. After treatment with 20 parts of oleoyl CoA (^14 C-0.4 μCi), the mixture was incubated at 37° C. for 10 minutes. A control mixture, omitting the test compound, was prepared and treated in the same manner. The lipids from the incubation mixture were extracted into an organic solvent and separated by thin-layer chromatography. The cholesterol ester fraction was counted in a scintillation counter. This procedure is a modification of that described by Hashimoto, et al. Life Scie., 12 (Part II), 1-12 (1973).
The results of this test on representative compounds of this invention appear in Table I. The final concentration of the test compound was 5.2 μg./ml., and effectiveness of the compound is expressed as percent inhibition of the ACAT enzyme compared to control values.

Turning to `CCOC(=O)c1ccc(NC(c2ccc(Cl)cc2)c2ccc(Cl)cc2)cc1` [4-[[Bis(p-chlorophenyl)methyl]amino]benzoic acid, ethyl ester], 5.2 µg/mL produced 55% inhibition.

`CCN(CCCc1ccc(Cl)cc1)c1ccc(C(=O)O)cc1` [4-[[3-(p-Chlorophenyl)propyl]ethylamino]benzoic acid]: the inhibition (commonly how much of the control response was suppressed) at 5.2 µg/mL was determined as 33%.

As to `CCOC(=O)c1ccc(NCCC(c2ccc(Cl)cc2)c2ccc(Cl)cc2)cc1` [4-[[3,3-Bis(p-chlorophenyl)propyl]amino]benzoic acid, ethyl ester], the inhibition at 5.2 µg/mL worked out at 89%.

`O=C(O)c1ccc(N(CCCc2ccc(Cl)cc2)CCCc2ccc(Cl)cc2)cc1` [4-[Bis[3-(p-chlorophenyl)propyl]amino]benzoic acid] showed an inhibition at 5.2 µg/mL of 33%.

For the molecule `CCOC(=O)c1ccc(N(C)CCCc2ccc(Cl)cc2)cc1` [4-[[3-(p-Chlorophenyl)propyl]methylamino]benzoic acid, ethyl ester], testing at 5.2 µg/mL gave an inhibition of 53%.

With `CCOC(=O)c1ccc(N(CC)CCCc2ccc(Cl)cc2)cc1` [4-[[3-(p-Chlorophenyl)propyl]ethylamino]benzoic acid, ethyl ester], 5.2 µg/mL produced 48% inhibition.

Turning to `O=C(O)c1ccc(NCC(c2ccc(Cl)cc2)c2ccc(Cl)cc2)cc1` [4-[[2,2-Bis(p-chlorophenyl)ethyl]amino]benzoic acid], 5.2 µg/mL produced 19% inhibition.

Take `CN(CCCc1ccc(Cl)cc1)c1ccc(C(=O)O)cc1` [4-[[3-(p-Chlorophenyl)propyl]methylamino]benzoic acid]: at 5.2 µg/mL the inhibition was 24%.

Take `O=C(O)c1ccc(NCC=C(c2ccc(Cl)cc2)c2ccc(Cl)cc2)cc1` [4-[[3,3-Bis(p-chlorophenyl)allyl]amino]benzoic acid]: the inhibition at 5.2 µg/mL is 46%.

Molecule `O=C(O)c1ccc(NCc2ccc(Cl)cc2)cc1` [4-[[(p-chlorophenyl)methyl]amino]benzoic acid] returned an inhibition at 5.2 µg/mL of 6%.

Molecule `CCOC(=O)c1ccc(NCC=C(c2ccc(Cl)cc2)c2ccc(Cl)cc2)cc1` [4-[[3,3-Bis(p-chlorophenyl)allyl]amino]benzoic acid, ethyl ester] gave an inhibition at 5.2 µg/mL of 81%.

Molecule `O=C(O)c1ccc(NCCC(c2ccc(Cl)cc2)c2ccc(Cl)cc2)cc1` [4-[[3,3-Bis(p-chlorophenyl)propyl]amino]benzoic acid] displayed an inhibition at 5.2 µg/mL of 21%.
